Measured values reported in the supplement of paper PMC11451515.

Tested on: SEM cells
Test: cell viability relative to DMSO control; higher = less cytotoxic
Details: 48 h
Outline: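 Viability is a per-plate percentage relative to DMSO wells, with cell-free wells as background. CellTiter-Glo One luminescence was read after 48 h at 37°C on 1536-well plates (5 μl) of NOMO1 or SEM (500 cells/well) or P12-Ichikawa (1000 cells/well) leukemia cells. The cells had been adapted for at least four passages in each medium and pin-dosed with library compounds in DMSO from 47 μM to 0.79 nM in 11 threefold steps.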

[1] = HPLM + 10% dialyzed FBS, 0.000781 µM
[2] = HPLM + 10% dialyzed FBS, 0.00234 µM
[3] = HPLM + 10% dialyzed FBS, 0.00702 µM
[4] = HPLM + 10% dialyzed FBS, 0.0211 µM
[5] = HPLM + 10% dialyzed FBS, 0.0632 µM
[6] = HPLM + 10% dialyzed FBS, 0.19 µM
[7] = HPLM + 10% dialyzed FBS, 0.569 µM
[8] = HPLM + 10% dialyzed FBS, 1.71 µM
[9] = HPLM + 10% dialyzed FBS, 5.12 µM
[10] = HPLM + 10% dialyzed FBS, 15.4 µM
[11] = HPLM + 10% dialyzed FBS, 46.1 µM
[12] = RPMI 5 mM glucose + 10% FBS, 0.000781 µM
[13] = RPMI 5 mM glucose + 10% FBS, 0.00234 µM
[14] = RPMI 5 mM glucose + 10% FBS, 0.00702 µM
[15] = RPMI 5 mM glucose + 10% FBS, 0.0211 µM
[16] = RPMI 5 mM glucose + 10% FBS, 0.0632 µM
[17] = RPMI 5 mM glucose + 10% FBS, 0.19 µM
[18] = RPMI 5 mM glucose + 10% FBS, 0.569 µM
[19] = RPMI 5 mM glucose + 10% FBS, 1.71 µM
[20] = RPMI 5 mM glucose + 10% FBS, 5.12 µM
[21] = RPMI 5 mM glucose + 10% FBS, 15.4 µM
[22] = RPMI 5 mM glucose + 10% FBS, 46.1 µM
[23] = RPMI 5 mM glucose + 10% dialyzed FBS, 0.000781 µM
[24] = RPMI 5 mM glucose + 10% dialyzed FBS, 0.00234 µM
[25] = RPMI 5 mM glucose + 10% dialyzed FBS, 0.00702 µM
[26] = RPMI 5 mM glucose + 10% dialyzed FBS, 0.0211 µM
[27] = RPMI 5 mM glucose + 10% dialyzed FBS, 0.0632 µM
[28] = RPMI 5 mM glucose + 10% dialyzed FBS, 0.19 µM
[29] = RPMI 5 mM glucose + 10% dialyzed FBS, 0.569 µM
[30] = RPMI 5 mM glucose + 10% dialyzed FBS, 1.71 µM
[31] = RPMI 5 mM glucose + 10% dialyzed FBS, 5.12 µM
[32] = RPMI 5 mM glucose + 10% dialyzed FBS, 15.4 µM
[33] = RPMI 5 mM glucose + 10% dialyzed FBS, 46.1 µM

SMILES | cell viability [1] | cell viability [2] | cell viability [3] | cell viability [4] | cell viability [5] | cell viability [6] | cell viability [7] | cell viability [8] | cell viability [9] | cell viability [10] | cell viability [11] | cell viability [12] | cell viability [13] | cell viability [14] | cell viability [15] | cell viability [16] | cell viability [17] | cell viability [18] | cell viability [19] | cell viability [20] | cell viability [21] | cell viability [22] | cell viability [23] | cell viability [24] | cell viability [25] | cell viability [26] | cell viability [27] | cell viability [28] | cell viability [29] | cell viability [30] | cell viability [31] | cell viability [32] | cell viability [33]
O=C(/C=C/c1c(C(=O)[O-])[nH]c2cc(Cl)cc(Cl)c12)Nc1ccccc1 | 89.9% | 120% | 122% | 122% | 127% | 114% | 123% | 132% | 124% | 115% | 73.1% | 110% | 113% | 106% | 102% | 118% | 112% | 121% | 122% | 129% | 118% | 65.1% | 95.9% | 103% | 110% | 119% | 104% | 125% | 101% | 121% | 128% | 118% | 60%
COc1cc2nc(N3CCCN(C)CC3)nc(NC3CCN(Cc4ccccc4)CC3)c2cc1OC | 92.1% | 122% | 129% | 111% | 130% | 119% | 125% | 98.1% | 60.1% | 37.5% | 10.2% | 104% | 116% | 140% | 113% | 132% | 127% | 143% | 97.7% | 108% | 44.8% | 11.5% | 112% | 117% | 131% | 104% | 128% | 132% | 132% | 131% | 92.3% | 55.9% | 19.1%
C\C1=C\N([C@H]2C[C@H](N=[N+]=[N-])[C@@H](CO)O2)C(=O)NC1=O | 65.4% | 68.8% | 82.4% | 71% | 80.8% | 93.1% | 95.4% | 86.5% | 81.6% | 84.3% | 79.3% | 82.5% | 85.6% | 88.9% | 89.3% | 84.8% | 101% | 88.4% | 104% | 92.2% | 101% | 82.2% | 72.2% | 83.9% | 96% | 98.4% | 117% | 92% | 105% | 71.8% | 93.2% | 85.7% | 62.4%
Oc1ccc(/C=C/c2cc(O)cc(O)c2)cc1 | 99.5% | 113% | 106% | 104% | 115% | 110% | 112% | 121% | 118% | 97.6% | 10.4% | 105% | 107% | 85.6% | 100% | 103% | 108% | 111% | 94.9% | 101% | 22.7% | 5.07% | 114% | 115% | 97.2% | 98.4% | 100% | 92.8% | 103% | 103% | 111% | 73.7% | 7.98%
C[C@@]12O[C@@H](C[C@]1(O)CO)n1c3ccccc3c3c4c(c5c6ccccc6n2c5c31)CNC4=O | 117% | 125% | 127% | 109% | 89.7% | 65.5% | 27.3% | 18.4% | 14.8% | 11.8% | 7.23% | – | – | – | – | – | – | – | – | – | – | – | 118% | 111% | 96.4% | 106% | 65% | 52.1% | 20.2% | 13% | 8.04% | 6.86% | 5.81%
O=C1C[C@@H](c2ccc(O)cc2)Oc2cc(O)cc(O)c21 | 123% | 115% | 122% | 119% | 119% | 118% | 125% | 110% | 116% | 120% | 106% | 102% | 91.4% | 79.3% | 83.3% | 91.7% | 83% | 64.5% | 77.7% | 67.2% | 80.4% | 64% | 124% | 116% | 130% | 123% | 124% | 114% | 122% | 115% | 121% | 139% | 88.5%
NC1=NC=C(C=C1)C2=CC=C3N=CC\4=C(N(C(=O)\C=C4)C5=CC(=CC=C5)C(F)(F)F)C3=C2 | 67.9% | 65.8% | 53.2% | 46.5% | 37.5% | 24.7% | 28.6% | 24.3% | 13.3% | 8.87% | 14.3% | 84.7% | 81.8% | 74.2% | 57.2% | 42.2% | 27.9% | 21.8% | 24.8% | 8.57% | 13.8% | 7.9% | 70.5% | 66.7% | 46.2% | 44.4% | 34.8% | 23.6% | 21.6% | 22.5% | 5.98% | 5.05% | 8.96%
CO[C@H]1C[C@@H]2CC[C@@H](C)[C@@](O)(O2)C(=O)C(=O)N2CCCC[C@H]2C(=O)O[C@H]([C@H](C)C[C@@H]2CC[C@@H](OC(=O)C(C)(CO)CO)[C@H](OC)C2)CC(=O)[C@H](C)/C=C(\C)[C@@H](O)[C@@H](OC)C(=O)[C@H](C)C[C@H](C)/C=C/C=C/C=C/1C | 80.2% | 93.3% | 88% | 77.7% | 76.5% | 74.5% | 64.7% | 55.4% | 57.7% | 49.1% | 41.6% | 71.2% | 78.2% | 70.1% | 61.6% | 60.5% | 56.3% | 57.7% | 52.4% | 50.5% | 27.3% | 15.7% | 87.4% | 97.1% | 91.2% | 73.1% | 84.6% | 83.1% | 64.4% | 61.8% | 67.4% | 58.4% | 23.2%
